From PMC12053642, “Oral PRI-002 treatment in patients with MCI or mild AD: a randomized, double-blind phase 1b trial” (Nature Communications, 2025)
“And” between values parts separate entries of the source, which are not always exact repeats. Equal values may be shown once. “Also recorded” adds a separate entry of the source. Square brackets hold non-standard residues; d marks the D form. Peptide text beside a SMILES is read from it.

Experiments:
[1] = test system: patients with MCI or mild dementia due to AD; experiment: Other tests of the CERAD+ battery (TMT-A, TMT-B, figure drawing, figure recall, clock, WMS delayed recall); format: in vivo, human; set-up: Fig Recall (Figure Recall test), mean / Clock (Clock drawing test), mean / WMS delayed recall (Wechsler Memory Scale), mean / Fig Draw (Figure Drawing test), mean / Fig Recall / Clock / WMS delayed recall / Fig Draw: scale not given here; TMT-B (Trail Making Test B), mean / TMT-A / TMT-B: unit not given here; details: for Clock (Clock drawing test), mean / Fig Draw (Figure Drawing test), mean / Fig Recall (Figure Recall test), mean / TMT-A (Trail Making Test A), mean / TMT-B (Trail Making Test B), mean / WMS delayed recall (Wechsler Memory Scale), mean: 300 mg q.d. oral 28 d; for Clock / Fig Draw / Fig Recall / TMT-A / TMT-B / WMS delayed recall: individual patient values, PRI-002 group
Procedure: (§1) The effect of PRI-002 on cognition and function was tested by the CERAD+ battery and CDR-SB at baseline, Day 28, and Day 56, exploratory endpoints included the change of biomarkers (p-tau, t-tau, Aβ 1-40, Aβ 1-42 and Aβ oligomers) in CSF, blood plasma; change in CERAD+ test battery and CDR-SB scores.

[2] = test system: patients with MCI or mild dementia due to AD; experiment: Mini-Mental State Examination (MMSE); format: in vivo, human; details: 300 mg q.d. oral 28 d
Source text: Twenty male and female (not of childbearing potential) patients between 50 and 80 years of age, with a Mini mental state examination (MMSE) score of 22 to 30, CSF biomarkers indicating AD pathology (p-tau >62 pg/ml, total CSF Aβ 1-42/1-40 ratio ≤0.055), a MRI scan in accordance with AD diagnosis not older than 3 months, at least 3 months stable medication prior to screening, were enrolled. Nineteen patients were randomized and data analyzed, one patient dropped out by withdrawal of the informed consent before treatment was initiated. Patients underwent an extensive clinical workup and received a MRI brain scan as well as a lumbar puncture. […] Patients who met any of the following criteria were not eligible for enrollment: History of seizures, stroke or transient ischemic attack, unstable medical, neurological, or psychiatric condition. Current treatment with typical antipsychotic or neuroleptic medication or within 6 months prior to screening. Anticoagulants within 3 months prior to screening, chronic use of opiates or opioids (including long-acting opioid medication) within 3 months prior to screening, stimulant medications (amphetamine, methylphenidate preparations, or modafinil) within 1 month prior to screening and throughout the study, chronic use of benzodiazepines, barbiturates, or hypnotics. […]

[3] = test system: patients with MCI or mild dementia due to AD; experiment: Safety MRI (ARIA); format: in vivo, human; details: MRI at screening, after Day 28 and Day 56, 300 mg q.d. oral 28 d, n=9
Procedure: For safety assessment during baseline, at Day 14, 28, and 56, laboratory parameters and vital signs were measured, a physical exam was performed, and ECGs were recorded per protocol. A safety MRI was performed at screening, a second one within 3 days after day 28 and a third one at Day 56. During baseline and at day 28, EEG measurements were performed. In addition, nature, frequency, severity, and timing of AEs and SAEs were recorded at day 14, 28, and 56. Standardized AE reports were provided and analysed by the Data Safety and Monitoring Board (DSMB).

[4] = test system: patients with MCI or mild dementia due to AD; experiment: CERAD word list learning and recall; format: in vivo, human; set-up: key to WL Recall (Word list recall test), Mean / WL Recall: words recalled after delay, out of the 10-word list; key to WL learn (CERAD Word list learning), Mean / WL learn: words recalled summed over 3 trials of a 10-word list; details: for WL Recall / WL learn: individual patient values, PRI-002 group; for WL learn, individual patients: one line per patient
Procedure: The CERAD Word Learning Test is a part of the CERAD cognitive test battery and assesses memory function, particularly for ADe and other dementias[34],[35]. It includes three parts: immediate recall, delayed recall, and recognition. During the test administration, a list of 10 words is read aloud three times, with the participant recalling as many as possible after each trial (immediate recall). After a delay of 5–10 min, they attempt to recall the words again (delayed recall), followed by a recognition task where they identify original words from a mixed list (recognition). The scores from the CERAD Word Learning Test are interpreted using normative data, which consider the participant’s age, gender, and education level. Normal range scores are considered between the 16th and 84th percentiles (z-score -1 to +1). For MCI scores between the 2nd and 15th percentiles (z-score -1 to -2) are expected. For significant cognitive impairment scores below the 2nd percentile (z-score < -2) are considered.

[5] = Day 1 of the MAD study; dose 320 mg/person; cited from earlier work
Procedure: On the two test days (Day 1 and Day 28), plasma levels were highly variable (Fig. 1). Coefficient of variations (CVs) were clearly above 100% at 0.5 h after the first treatment and at the pre-treatment time of Day 28 (Supplementary Table 8). […] The high variability is due to a non-Gaussian data distribution. Mean maximum plasma levels on Day 1 (Day 28) of 4.46 ± 3.71 ng/ml (12.6 ...

[6] = test system: patients with MCI or mild dementia due to AD; experiment: Clinical Dementia Rating Sum of Boxes (CDR-SB); format: in vivo, human; details: 300 mg q.d. oral 28 d
Procedure: as §1

**Q.** Which “Clock (Clock drawing test), mean” value ([1]; Day 1 (baseline), N=9) does the source give for `CC(C)C[C@@H](NC(=O)[C@H](NC(=O)[C@H]1CCCN1)[C@H](C)O)C(=O)N[C@H](Cc1c[nH]cn1)C(=O)N[C@@H](C(=O)N[C@H](Cc1c[nH]cn1)C(=O)N[C@H](CC(N)=O)C(=O)N[C@H](CCCNC(=N)N)C(=O)N[C@H](CCCNC(=N)N)C(=O)N[C@H](CCCNC(=N)N)C(=O)N[C@H](CCCNC(=N)N)C(=O)N[C@H](CCCNC(=N)N)C(N)=O)[C@H](C)O` [PRI-002] (H-[dP][dT][dL][dH][dT][dH][dN][dR][dR][dR][dR][dR]-NH2; N-terminus and C-terminus assumed) here?
**A.** Its value is 1.7.

**Q.** And the Clock ([1]; Day 1)?
**A.** Its Clock is 1.0 and 2.0 and 3.0.

**Q.** And the “Fig Draw” value ([1]; Day 1)?
**A.** Its value is 11 and 9 and 10 and 8.

**Q.** And the “Fig Recall” value ([1]; Day 1)?
**A.** Its value is 2 and 4 and 7 and 0 and 6 and 5 and 11 and 8.

**Q.** What about the TMT-A ([1]; Day 1) of the same compound?
**A.** The TMT-A was 98 and 74 and 60 and 47 and 28 and 43 and 103 and 33 and 58.

**Q.** What about the TMT-B ([1]; Day 1) of the same compound?
**A.** The TMT-B was 240 and 283 and 160 and 205 and 100 and 77 and 141 and 80 and 132.

**Q.** What about the WMS delayed recall ([1]; Day 1) of the same compound?
**A.** Its WMS delayed recall is 5 and 0 and 4 and 14 and 30 and 7 and 28 and 2.

**Q.** What about the “Clock (Clock drawing test), mean” value ([1]; Day 28, N=8) of the same compound?
**A.** The value was 1.6.

**Q.** And the “Fig Draw (Figure Drawing test), mean” value ([1]; Day 28, N=8)?
**A.** Its value is 10.8.

**Q.** What about the “Fig Recall (Figure Recall test), mean” value ([1]; Day 28, N=8) of the same compound?
**A.** Its value is 6.9.

**Q.** And the “TMT-A (Trail Making Test A), mean” value ([1]; Day 28, N=8)?
**A.** The value was 58.4.

**Q.** What about the “TMT-B (Trail Making Test B), mean” value ([1]; Day 28, N=8) of the same compound?
**A.** The value was 137.5.

**Q.** What about the “WMS delayed recall (Wechsler Memory Scale), mean” value ([1]; Day 28, N=8) of the same compound?
**A.** The value was 12.8.

**Q.** And the Clock ([1]; Day 28)?
**A.** Its Clock is 4.0 and 2.0 and 1.0.

**Q.** And the “Fig Draw” value ([1]; Day 28)?
**A.** Its value is 11 and 9.

**Q.** What about the “Fig Recall” value ([1]; Day 28) of the same compound?
**A.** The value was 0 and 6 and 5 and 11 and 9 and 4.

**Q.** What about the TMT-A ([1]; Day 28) of the same compound?
**A.** The TMT-A was 98 and 51 and 60 and 36 and 50 and 86 and 26.

**Q.** And the TMT-B ([1]; Day 28)?
**A.** Its TMT-B is 270 and 115 and 127 and 87 and 80 and 155 and 62 and 204.

**Q.** And the WMS delayed recall ([1]; Day 28)?
**A.** Its WMS delayed recall is 2 and 0 and 10 and 9 and 34 and 14 and 27 and 6.

**Q.** What about the “Fig Draw (Figure Drawing test), mean” value ([1]; Day 56, N=9) of the same compound?
**A.** The value was 10.9.

**Q.** What about the “Fig Recall (Figure Recall test), mean” value ([1]; Day 56, N=9) of the same compound?
**A.** The value was 7.4.

**Q.** And the “TMT-A (Trail Making Test A), mean” value ([1]; Day 56, N=9)?
**A.** Its value is 53.9.

**Q.** And the “TMT-B (Trail Making Test B), mean” value ([1]; Day 56, N=9)?
**A.** The value was 121.9.

**Q.** And the “WMS delayed recall (Wechsler Memory Scale), mean” value ([1]; Day 56, N=9)?
**A.** Its value is 15.0.

**Q.** What about the Clock ([1]; Day 56) of the same compound?
**A.** Its Clock is 4.0 and 2.0 and 1.0 and 3.0.

**Q.** And the “Fig Draw” value ([1]; Day 56)?
**A.** The value was 11 and 10.

**Q.** What about the “Fig Recall” value ([1]; Day 56) of the same compound?
**A.** Its value is 0 and 4 and 7 and 2 and 10 and 11.

**Q.** And the TMT-A ([1]; Day 56)?
**A.** The TMT-A was 70 and 79 and 45 and 88 and 28 and 40 and 51 and 30 and 54.

**Q.** What about the TMT-B ([1]; Day 56) of the same compound?
**A.** Its TMT-B is 238 and 116 and 128 and 182 and 72 and 86 and 119 and 64 and 92.

**Q.** And the WMS delayed recall ([1]; Day 56)?
**A.** Its WMS delayed recall is 3 and 0 and 15 and 30 and 23 and 39 and 10.

**Q.** What about the “MMSE, Mean” value ([2]; Day 28, n=8) of the same compound?
**A.** Its value is 27.9.

**Q.** And the “MMSE, Mean” value ([2]; Day 56, n=9)?
**A.** Its value is 27.2.

**Q.** And the “MRI: ARIA, edematous changes” value [3]?
**A.** Its value is “no edematous changes; also recorded: no ARIA”.

**Q.** What about the “WL Recall” value ([4]; Day 1) of the same compound?
**A.** Its value is 3 and 4 and 1 and 5 and 7 and 9.

**Q.** And the WL learn ([4]; Day 1)?
**A.** Its WL learn is 14 and 10 and 13 and 11 and 20 and 16 and 25.

**Q.** And the “WL learn (CERAD Word list learning), Mean” value ([4]; Day 28 (end of treatment), n=8, 300 mg q.d. oral 28 d)?
**A.** The value was 17.3 and 17.25.

**Q.** And the “WL Recall” value ([4]; Day 28)?
**A.** Its value is 4 and 5 and 0 and 6 and 10 and 7.

**Q.** And the WL learn ([4]; Day 28)?
**A.** The WL learn was 15 and 14 and 12 and 16 and 25 and 17.

**Q.** What about the “WL Recall (Word list recall test), Mean” value ([4]; Day 28, n=8, 300 mg q.d. oral 28 d) of the same compound?
**A.** The value was 6.0.

**Q.** What about the “WL learn, individual patients” value ([4]; Day 28, 300 mg q.d. oral 28 d) of the same compound?
**A.** Its value is 16 and 25 (2×) and 17 and 14 (2×) and 15 and 12.

**Q.** What about the “WL learn (CERAD Word list learning), Mean” value ([4]; Day 56 (End of Study), n=9, PV 0.036 vs placebo (Wilcoxon), 300 mg q.d. oral 28 d) of the same compound?
**A.** The value was 19.3 and 19.33.

**Q.** And the “performance in the CERAD word list versus placebo” value ([4]; Day 56, P ≤ 0.05, not corrected for multiplicity, 300 mg q.d. oral 28 d)?
**A.** Its value is “significantly better”.

**Q.** What about the “WL Recall” value ([4]; Day 56) of the same compound?
**A.** The value was 5 and 4 and 3 and 8 and 10.

**Q.** And the WL learn ([4]; Day 56)?
**A.** Its WL learn is 18 and 16 and 17 and 24 and 30.

**Q.** And the “WL Recall (Word list recall test), Mean” value ([4]; Day 56, n=9, 300 mg q.d. oral 28 d)?
**A.** Its value is 5.4.

**Q.** What about the “WL learn, individual patients” value ([4]; Day 56, 300 mg q.d. oral 28 d) of the same compound?
**A.** The value was 18 (3×) and 24 and 30 and 17 (2×) and 16 (2×).

**Q.** What about the “verum treated patients with improvement of memory function in the CERAD word list test” value ([4]; Day 56 versus baseline, of 9 patients, 300 mg q.d. oral 28 d) of the same compound?
**A.** The value was 9.

**Q.** And the “Cohen's d effect size, WL learn, PRI-002 vs placebo” value ([4]; day 56, pooled SD, 300 mg q.d. oral 28 d)?
**A.** The value was 0.94.

**Q.** What about the “Difference WL learn Baseline (day 1) to EoS (day 56), individual patients” value ([4]; one line per patient 1-9, 300 mg q.d. oral 28 d) of the same compound?
**A.** Its value is 7 and 4 (2×) and 2 and 5 and 1 and 6 and 3 (2×).

**Q.** What about the AUC0-4 hour [5] of the same compound?
**A.** Its AUC0-4 hour is 33.7 ng·h/mL.

**Q.** And the “partial AUC up to 4 h as percentage of total AUC” value [5]?
**A.** Its value is 44.2%.

**Q.** What about the “CDR-SB, Mean” value ([6]; Day 28, n=8) of the same compound?
**A.** Its value is 1.75.

**Q.** What about the “CDR-SB, Mean” value ([6]; Day 56, n=9) of the same compound?
**A.** The value was 2.39.
